# Like-named read-outs stand apart in the source and are kept apart here.
# What was measured:
# Type in all cases: binding
# [1] = biological target: T1, HeLa cell extract proteins (Homo sapiens, UniProt O00330)
# T1 construct: endogenous in cells; host or cells: HeLa cell extract
# T1 sequence (O00330 54-501): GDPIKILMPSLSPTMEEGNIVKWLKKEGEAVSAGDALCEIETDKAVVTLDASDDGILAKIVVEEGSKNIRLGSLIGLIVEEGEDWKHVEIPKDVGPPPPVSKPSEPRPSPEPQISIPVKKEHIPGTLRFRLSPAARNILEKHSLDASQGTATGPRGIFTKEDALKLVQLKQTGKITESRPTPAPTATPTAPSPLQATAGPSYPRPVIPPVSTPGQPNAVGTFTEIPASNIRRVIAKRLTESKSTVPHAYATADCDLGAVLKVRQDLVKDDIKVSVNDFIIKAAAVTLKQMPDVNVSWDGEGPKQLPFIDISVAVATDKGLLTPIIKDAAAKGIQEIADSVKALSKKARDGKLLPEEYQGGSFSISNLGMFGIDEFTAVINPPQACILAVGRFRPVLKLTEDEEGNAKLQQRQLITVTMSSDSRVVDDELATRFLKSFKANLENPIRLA
# [2] = biological target: T2, HeLa cell extract proteins (Homo sapiens, UniProt P23284)
# T2 construct: endogenous in cells; host or cells: HeLa cell extract
# T2 sequence (P23284 34-216): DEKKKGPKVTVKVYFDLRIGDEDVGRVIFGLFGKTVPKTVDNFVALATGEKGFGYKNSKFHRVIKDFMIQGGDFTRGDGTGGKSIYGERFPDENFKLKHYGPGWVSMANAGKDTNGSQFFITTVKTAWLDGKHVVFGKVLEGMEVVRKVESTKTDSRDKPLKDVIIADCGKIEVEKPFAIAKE
# [3] = biological target: T3, HeLa cell extract proteins (Homo sapiens, UniProt P24539)
# T3 construct: endogenous in cells; host or cells: HeLa cell extract
# T3 sequence (P24539 43-256): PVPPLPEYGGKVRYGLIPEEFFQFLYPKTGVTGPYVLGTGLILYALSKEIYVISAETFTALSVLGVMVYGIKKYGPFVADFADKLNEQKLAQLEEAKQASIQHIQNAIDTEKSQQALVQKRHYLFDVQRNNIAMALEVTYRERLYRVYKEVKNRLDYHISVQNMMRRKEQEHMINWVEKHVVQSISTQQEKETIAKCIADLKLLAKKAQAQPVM
# [4] = biological target: T4, HeLa cell extract proteins (Homo sapiens, UniProt P30101)
# T4 construct: endogenous in cells; host or cells: HeLa cell extract
# T4 sequence (P30101 25-505): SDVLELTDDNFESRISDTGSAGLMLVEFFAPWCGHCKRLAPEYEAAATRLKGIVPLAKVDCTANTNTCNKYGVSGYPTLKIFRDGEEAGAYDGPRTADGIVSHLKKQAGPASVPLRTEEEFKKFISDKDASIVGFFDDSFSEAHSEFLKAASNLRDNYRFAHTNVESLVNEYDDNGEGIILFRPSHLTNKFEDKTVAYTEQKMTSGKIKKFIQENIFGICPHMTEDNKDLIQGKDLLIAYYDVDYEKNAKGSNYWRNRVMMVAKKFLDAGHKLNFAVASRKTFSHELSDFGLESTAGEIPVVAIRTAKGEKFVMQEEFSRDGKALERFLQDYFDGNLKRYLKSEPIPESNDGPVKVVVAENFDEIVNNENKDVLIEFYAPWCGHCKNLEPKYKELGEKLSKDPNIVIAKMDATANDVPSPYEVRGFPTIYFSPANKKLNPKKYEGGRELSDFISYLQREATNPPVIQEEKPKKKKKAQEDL
# [5] = biological target: T5, HeLa cell extract proteins (Homo sapiens, UniProt Q03519)
# T5 construct: endogenous in cells; host or cells: HeLa cell extract
# T5 sequence (Q03519 1-686): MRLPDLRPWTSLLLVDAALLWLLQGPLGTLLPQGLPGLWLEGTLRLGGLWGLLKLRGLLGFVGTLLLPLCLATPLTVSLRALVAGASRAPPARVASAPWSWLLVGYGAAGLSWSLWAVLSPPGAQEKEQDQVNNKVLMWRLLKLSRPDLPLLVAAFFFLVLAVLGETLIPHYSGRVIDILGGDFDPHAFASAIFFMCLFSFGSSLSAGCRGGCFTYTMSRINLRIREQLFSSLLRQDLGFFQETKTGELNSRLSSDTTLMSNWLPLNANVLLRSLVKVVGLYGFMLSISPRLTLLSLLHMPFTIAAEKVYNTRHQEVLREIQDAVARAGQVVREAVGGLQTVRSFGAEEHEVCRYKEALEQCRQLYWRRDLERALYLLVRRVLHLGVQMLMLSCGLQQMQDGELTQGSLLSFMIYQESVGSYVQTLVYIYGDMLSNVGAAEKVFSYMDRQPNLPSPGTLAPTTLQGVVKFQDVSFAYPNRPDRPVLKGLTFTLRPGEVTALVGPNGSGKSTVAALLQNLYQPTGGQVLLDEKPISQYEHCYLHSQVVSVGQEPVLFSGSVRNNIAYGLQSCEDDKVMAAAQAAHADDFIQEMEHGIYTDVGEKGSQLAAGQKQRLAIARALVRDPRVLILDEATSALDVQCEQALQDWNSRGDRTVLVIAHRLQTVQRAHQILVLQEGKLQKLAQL
# [6] = biological target: T6, HeLa cell extract proteins (Homo sapiens, UniProt Q99497)
# T6 construct: endogenous in cells; host or cells: HeLa cell extract
# T6 sequence (Q99497 1-189): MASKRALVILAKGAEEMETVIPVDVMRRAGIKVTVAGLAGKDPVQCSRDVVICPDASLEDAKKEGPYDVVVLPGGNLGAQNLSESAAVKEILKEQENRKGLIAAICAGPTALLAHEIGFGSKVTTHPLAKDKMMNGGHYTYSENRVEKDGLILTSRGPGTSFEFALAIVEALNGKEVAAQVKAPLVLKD
# [7] = biological target: T7, HeLa cell extract proteins (Homo sapiens, UniProt Q9P035)
# T7 construct: endogenous in cells; host or cells: HeLa cell extract
# T7 sequence (Q9P035 1-362): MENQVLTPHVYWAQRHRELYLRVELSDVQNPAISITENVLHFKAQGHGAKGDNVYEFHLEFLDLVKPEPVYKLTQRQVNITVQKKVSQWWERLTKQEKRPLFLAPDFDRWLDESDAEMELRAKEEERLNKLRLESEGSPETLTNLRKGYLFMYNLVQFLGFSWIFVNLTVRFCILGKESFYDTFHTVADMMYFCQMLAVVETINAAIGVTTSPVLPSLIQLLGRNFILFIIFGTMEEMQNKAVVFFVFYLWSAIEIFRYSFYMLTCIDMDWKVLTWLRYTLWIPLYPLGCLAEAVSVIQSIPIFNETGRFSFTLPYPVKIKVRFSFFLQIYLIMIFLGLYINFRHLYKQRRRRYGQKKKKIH
# [8] = HeLa, protein PDHX (PYRUVATE DEH[…] X COMPONENT, MIT[…])
# [9] = HeLa, protein PPIB (PEPT[…] B PRECURSOR.)
# [10] = HeLa, protein DJ-1 (PROTEIN DJ-1.)
Compound,"fold changes relative to vehicle control ([2]; HeLa, captured protein PPIB)","fold changes relative to vehicle control ([3]; HeLa, captured protein ATP5F1)","fold changes relative to vehicle control ([4]; protein PDIA3, HeLa)","fold changes relative to vehicle control ([5]; HeLa, captured protein TAP2)","fold changes relative to vehicle control ([6]; HeLa, captured protein DJ-1)","fold changes relative to vehicle control ([7]; HeLa, protein PTPLAD1)","fold changes relative to vehicle control ([1]; protein PDHX, HeLa)","fold changes relative to vehicle control [2, 9] [fold]","fold changes relative to vehicle control ([3]; HeLa, protein ATP5F1)","fold changes relative to vehicle control ([5]; captured protein TAP2, HeLa)","fold changes relative to vehicle control [6, 10] [fold]","fold changes relative to vehicle control ([7]; captured protein PTPLAD1, HeLa)",other results
"Nc1nc2c(c(=O)[nH]1)N(C=O)C(CNc1ccc(C(=O)N[C@@H](CCC(=O)O)C(=O)O)cc1)CN2 (stereo partly shown) [LEU, leucovorin]",1,1.15,0.94,1.11,1.1,0.97,–,–,–,–,–,–,"fold changes relative to vehicle control [1, 8]: 1.05"
"Nc1nc2[nH]cc(CCc3ccc(C(=O)N[C@@H](CCC(=O)O)C(=O)O)cc3)c2c(=O)[nH]1 [PTX, pemetrexed]",–,–,–,–,–,–,–,–,–,–,–,–,fold changes relative to vehicle control [1]: 0.98; fold changes relative to vehicle control [2]: 1.11; fold changes relative to vehicle control [3]: 1.13; fold changes relative to vehicle control [4]: 0.97; fold changes relative to vehicle control [5]: 0.89; fold changes relative to vehicle control [6]: 1.28; fold changes relative to vehicle control [7]: 1
CCCCCCOc1ccc(Cc2cnc(N)nc2N)cc1 [compound 1],–,–,1.19,–,–,–,1,1.37,1.05,1.01,1.34,1.06,–
CCCCCCOc1cccc(Cc2cnc(N)nc2N)c1 [compound 2],–,–,1.79,–,–,–,0.43,2.04,0.85,0.98,2.24,1.02,–
Nc1nc2cccc(-c3ccccc3)c2n1Cc1ccc(Cl)c(Cl)c1 [compound 3],–,–,0.85,–,–,–,1.12,1.25,0.88,1.06,0.85,2.73,–
NCCOCCOCC(=O)Nc1nc2ncc(CNc3ccc(C(=O)NC(CCC(=O)O)C(=O)O)cc3)nc2c(=O)[nH]1 (stereo not shown) [compound 6],1.49,0.96,1.15,1.18,1.36,1.04,–,–,–,–,–,–,"fold changes relative to vehicle control ([1]; HeLa, protein PDHX (PYRUVATE DEHYDROGENASE PROTEIN X COMPONENT, MITOCHONDRIAL PRECURSOR)): 0.92"
NCCCNc1ccc(C(=O)NC(CCC(=O)O)C(=O)O)cc1 (stereo not shown) [compound 7],1.22,1.05,0.85,1.09,1.06,1.05,–,–,–,–,–,–,"fold changes relative to vehicle control [1, 8]: 1.02"

# Source: article PMC6199744, “Development of Chemical Proteomics for the Folateome and Analysis of the Kinetoplastid Folateome” (ACS Infectious Diseases, 2018)
